Source: ChEMBL document CHEMBL1201862, “PubChem BioAssay data set” (2004)
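Tested at 5 concentrations; 48 h exposure; 96-well plates; endpoints linearly interpolated, else capped at highest concentration. GI50 = concentration required for 50% inhibition of growth.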 The source made the active and inactive calls. No stated cut-off is given here; in the data, active = GI50 up to about 1.1 µM and inactive = higher.

Key:
Test in all cases: inhibition of tumour cell growth, NCI panel, 48 h
ACHN = test system: ACHN
K562 = test system: K562
Malme-3M = test system: Malme-3M
IGROV-1 = test system: IGROV-1
786-0 = test system: 786-0
MOLT-4 = test system: MOLT-4
NCI-H23 = test system: NCI-H23
MDA-MB-231 = test system: MDA-MB-231
KM12 = test system: KM12
U-251 = test system: U-251
HCT-15 = test system: HCT-15
SNB-19 = test system: SNB-19
NCI-H460 = test system: NCI-H460
OVCAR-8 = test system: OVCAR-8
CCRF-CEM = test system: CCRF-CEM
MDA-MB-435 = test system: MDA-MB-435
SK-MEL-2 = test system: SK-MEL-2
RPMI-8226 = test system: RPMI-8226
HOP-62 = test system: HOP-62
MDA-N = test system: MDA-N
T47D = test system: T47D
OVCAR-3 = test system: OVCAR-3
HOP-92 = test system: HOP-92
BT-549 = test system: BT-549
HCT-116 = test system: HCT-116
COLO 205 = test system: COLO 205
OVCAR-5 = test system: OVCAR-5
SN12C = test system: SN12C
RXF 393 = test system: RXF 393
HCC 2998 = test system: HCC 2998
MCF7 = test system: MCF7
Hs-578T = test system: Hs-578T
PC-3 = test system: PC-3
HL-60 = test system: HL-60
NCI/ADR-RES = test system: NCI/ADR-RES
SNB-75 = test system: SNB-75
TK-10 = test system: TK-10
M14 = test system: M14
NCI-H226 = test system: NCI-H226
CAKI-1 = test system: CAKI-1
OVCAR-4 = test system: OVCAR-4
UACC-62 = test system: UACC-62
UO-31 = test system: UO-31
SF-539 = test system: SF-539
DU-145 = test system: DU-145
LOX IMVI = test system: LOX IMVI
SK-OV-3 = test system: SK-OV-3
A549 = test system: A549
SK-MEL-5 = test system: SK-MEL-5
NCI-H522 = test system: NCI-H522
UACC-257 = test system: UACC-257
HT-29 = test system: HT-29
SF-268 = test system: SF-268
SF-295 = test system: SF-295
SR = test system: SR
EKVX = test system: EKVX
SW-620 = test system: SW-620
SK-MEL-28 = test system: SK-MEL-28
A498 = test system: A498

## CCN(CC)C(=O)Cn1c(C)cc2ccccc21
ACHN
  GI50: > 100 µM (inactive)
K562
  GI50: > 100 µM (inactive)
Malme-3M
  GI50: > 100 µM (inactive)
IGROV-1
  GI50: > 100 µM (inactive)
786-0
  GI50: > 100 µM (inactive)
MOLT-4
  GI50: > 100 µM (inactive)
NCI-H23
  GI50: > 100 µM (inactive)
MDA-MB-231
  GI50: > 100 µM (inactive)
KM12
  GI50: > 100 µM (inactive)
U-251
  GI50: > 100 µM (inactive)
HCT-15
  GI50: > 100 µM
SNB-19
  GI50: > 100 µM (inactive)
NCI-H460
  GI50: > 100 µM (inactive)
OVCAR-8
  GI50: > 100 µM (inactive)
CCRF-CEM
  GI50: > 100 µM (inactive)
MDA-MB-435
  GI50: > 100 µM (inactive)
SK-MEL-2
  GI50: > 100 µM (inactive)
RPMI-8226
  GI50: > 100 µM (inactive)
HOP-62
  GI50: > 100 µM (inactive)
MDA-N
  GI50: > 100 µM (inactive)
T47D
  GI50: > 100 µM (inactive)
OVCAR-3
  GI50: > 100 µM (inactive)
HOP-92
  GI50: > 100 µM (inactive)
BT-549
  GI50: > 100 µM (inactive)
HCT-116
  GI50: > 100 µM (inactive)
COLO 205
  GI50: > 100 µM (inactive)
OVCAR-5
  GI50: > 100 µM (inactive)
SN12C
  GI50: > 100 µM (inactive)
RXF 393
  GI50: > 100 µM (inactive)
HCC 2998
  GI50: > 100 µM (inactive)
MCF7
  GI50: > 100 µM (inactive)
Hs-578T
  GI50: > 100 µM (inactive)
PC-3
  GI50: > 100 µM (inactive)
HL-60
  GI50: > 100 µM (inactive)
NCI/ADR-RES
  GI50: > 100 µM (inactive)
SNB-75
  GI50: > 100 µM (inactive)
TK-10
  GI50: > 100 µM (inactive)
M14
  GI50: > 100 µM (inactive)
NCI-H226
  GI50: > 100 µM (inactive)
CAKI-1
  GI50: > 100 µM (inactive)
OVCAR-4
  GI50: > 100 µM (inactive)
UACC-62
  GI50: > 100 µM (inactive)
UO-31
  GI50: > 100 µM (inactive)
SF-539
  GI50: > 100 µM (inactive)
DU-145
  GI50: > 100 µM (inactive)
LOX IMVI
  GI50: > 100 µM (inactive)
SK-OV-3
  GI50: > 100 µM (inactive)
A549
  GI50: > 100 µM (inactive)
SK-MEL-5
  GI50: > 100 µM (inactive)
NCI-H522
  GI50: > 100 µM (inactive)
UACC-257
  GI50: > 100 µM (inactive)
HT-29
  GI50: > 100 µM (inactive)
SF-268
  GI50: > 100 µM (inactive)
SF-295
  GI50: > 100 µM (inactive)
SR
  GI50: > 100 µM (inactive)
EKVX
  GI50: > 100 µM (inactive)
SW-620
  GI50: > 100 µM (inactive)
SK-MEL-28
  GI50: > 100 µM (inactive)

## O=C(O)C(O)c1ccc(F)cc1 (stereo not given)
ACHN
  GI50: > 100 µM (inactive)
K562
  GI50: > 100 µM (inactive)
Malme-3M
  GI50: > 100 µM (inactive)
IGROV-1
  GI50: > 100 µM (inactive)
786-0
  GI50: > 100 µM (inactive)
MOLT-4
  GI50: > 100 µM (inactive)
NCI-H23
  GI50: > 100 µM (inactive)
MDA-MB-231
  GI50: > 100 µM (inactive)
KM12
  GI50: > 100 µM (inactive)
U-251
  GI50: > 100 µM (inactive)
HCT-15
  GI50: > 100 µM
SNB-19
  GI50: > 100 µM (inactive)
NCI-H460
  GI50: > 100 µM (inactive)
OVCAR-8
  GI50: > 100 µM (inactive)
MDA-MB-435
  GI50: > 100 µM (inactive)
SK-MEL-2
  GI50: > 100 µM (inactive)
RPMI-8226
  GI50: > 100 µM (inactive)
HOP-62
  GI50: > 100 µM (inactive)
MDA-N
  GI50: > 100 µM (inactive)
T47D
  GI50: > 100 µM (inactive)
OVCAR-3
  GI50: > 100 µM (inactive)
HOP-92
  GI50: > 100 µM (inactive)
BT-549
  GI50: > 100 µM (inactive)
HCT-116
  GI50: > 100 µM (inactive)
OVCAR-5
  GI50: > 100 µM (inactive)
SN12C
  GI50: > 100 µM (inactive)
RXF 393
  GI50: > 100 µM (inactive)
MCF7
  GI50: > 100 µM (inactive)
Hs-578T
  GI50: > 100 µM (inactive)
PC-3
  GI50: > 100 µM (inactive)
NCI/ADR-RES
  GI50: > 100 µM (inactive)
SNB-75
  GI50: > 100 µM (inactive)
TK-10
  GI50: > 100 µM (inactive)
M14
  GI50: > 100 µM (inactive)
CAKI-1
  GI50: > 100 µM (inactive)
OVCAR-4
  GI50: > 100 µM (inactive)
UACC-62
  GI50: > 100 µM (inactive)
UO-31
  GI50: > 100 µM (inactive)
DU-145
  GI50: > 100 µM (inactive)
LOX IMVI
  GI50: > 100 µM (inactive)
SK-OV-3
  GI50: > 100 µM (inactive)
A549
  GI50: > 100 µM (inactive)
NCI-H522
  GI50: > 100 µM (inactive)
UACC-257
  GI50: > 100 µM (inactive)
HT-29
  GI50: > 100 µM (inactive)
SF-268
  GI50: > 100 µM (inactive)
SF-295
  GI50: > 100 µM (inactive)
SR
  GI50: > 100 µM (inactive)
A498
  GI50: > 100 µM (inactive)
EKVX
  GI50: > 100 µM (inactive)
SW-620
  GI50: > 100 µM (inactive)
SK-MEL-28
  GI50: > 100 µM (inactive)
